One series concerns the target T1, NRP1 b1 domain (Homo sapiens, UniProt O14786).
T1 construct: with the purified recombinant NRP1 b1 domain immobilized on the chip; inferred from Ni-NTA capture), TEV-cleavable (cleaved yes); made in house; host or cells: E. coli Rosetta (DE3)
T1 sequence (O14786 275-424 limits assumed): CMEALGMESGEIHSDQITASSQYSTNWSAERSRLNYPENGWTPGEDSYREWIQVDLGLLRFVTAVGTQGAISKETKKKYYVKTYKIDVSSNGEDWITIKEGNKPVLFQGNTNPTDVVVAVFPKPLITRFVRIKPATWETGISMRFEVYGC
Kind of series: SPR binding to immobilized NRP1 b1 domain (Biacore 4000, CM5 chip). The settings on record: steady-state binding, 25 °C; mean ± SD; read-out: SPR NRP1 b1 domain equilibrium KD. On the procedure: Surface Plasmon Resonance experiments were performed using a Biacore 4000 instrument at a constant temperature of 25 °C. Sensor chips, buffer stock solutions, and immobilization reagents were purchased from GE Healthcare. Recombinant human NRP1-b1 was produced in-house and recombinant human NRP1-ECD (extracellular domain) was purchased from ACRO (catalogue number NR1-H5A228). All other reagents were obtained from Sigma.
PBS containing 0.05% surfactant P20 was used as the running buffer during immobilization. NRP1-b1 was immobilized onto a CM5 chip using random amine coupling. The four flow cells were treated in the same way to optimize throughput. In summary, spots 1 and 2 were activated with the coupling reagents EDC and NHS for 10 min. NRP1-b1 at a concentration of 20 μg/mL in 10 mM sodium acetate pH 5 was injected onto the surface for 10 and 5 min in spots 1 and 2, respectively to generate surfaces with high and low density. […] The unmodified spot 3 was used as a reference.
PBS buffer containing 0.05% surfactant P20 and 3% DMSO was used as the running buffer and sample dilution buffer throughout these experiments. Dose–responses were obtained using a 2-fold sample dilution from 16 μM to 31 nM, using an injection time of 60 s. Surface regeneration between injections was not necessary, but a wash step with 1 M NaCl was included after injection of the highest concentration sample for each compound.
Binding curves were corrected for variations in DMSO concentration and normalized by molecular weight. Binding results to high and low-density surfaces were processed independently and the average ± SD is presented. K Ds reported are derived from steady-state binding responses and therefore correspond to the equilibrium binding affinity of the compounds.

Another series has as its target T2, NRP1-a1,b1 (Homo sapiens, UniProt O14786).
T2 sequence (O14786 273-427 limits assumed): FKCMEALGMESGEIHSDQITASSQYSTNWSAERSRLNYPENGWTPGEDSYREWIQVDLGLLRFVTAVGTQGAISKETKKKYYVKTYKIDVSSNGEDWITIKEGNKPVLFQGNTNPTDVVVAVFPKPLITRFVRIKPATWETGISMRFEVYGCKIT
In words: bt-VEGFA cell-free competition binding assay (plate-based). How it is done: The assay was conducted as previously described. Briefly, the 96-well plates were precoated with NRP1 protein at 3 μg/mL overnight at 4 °C. On the following day, the plates were treated with blocking buffer (PBS containing 1%1% BSA) and washed three times with wash buffer (PBS containing 0.1% Tween-20). The various concentrations of compounds diluted in PBS containing 1%1% DMSO were added, followed by addition of 0.25 nM of bt-VEGFA165. After 2 h of incubation at room temperature, the plates were washed three times with wash buffer. The bound bt-VEGFA165 to NRP1 was detected by streptavidin– horseradish peroxidase conjugates and the enzyme substrate, and measured using a Tecan Genius plate reader at 450 nm with a reference wavelength at 595 nm. Nonspecific binding was determined in the absence of NRP1-coated wells of the plates.

Series [1] is described as follows: Pharmacokinetics in mice, 2 mg/kg iv. The settings on record: female, BALB/c, mouse, plasma. It is filed as in vivo. How it is done: To test compound drug-like properties, selected compounds with low IC50 were further evaluated for their pharmacokinetic (PK) profile. 6–8 week-old BABL/c female mice were used. Two mg/kg of compounds was formulated in 7.5% DMSO and 92.5% PBS solution and intravenously dosed into the tail vein as a bolus. Blood samples were collected by cardiac puncture at 5, 15, 30, 60, 180, and 240 min post dosing. Plasma samples were prepared by centrifugation at 7000 rpm for 5 min, and supernatants were collected, immediately snap-frozen on dry ice and stored at −20 °C. Samples were analyzed by liquid chromatography-tandem mass spectrometry using electrospray ionization and data was analyzed by WinNonlin software.

For series [2] the following is noted: pK BHX scale; no reference given; cited from earlier work.
The mark [3] stands for this setting: 0.25 nM bt-VEGFA165, mean ± SEM, at least three independent experiments, read-out: Competition analysis bt-VEGFA, cell-free NRP1-a1,b1 IC50.

Each structure is given as a SMILES string. Where “and” joins values, the source holds several entries; their conditions need not be identical. Equal values may be shown once. Read-outs that look alike come from different tables or passages of the source.

As for `Cn1cncc1CNCc1cccc(-c2cc(S(=O)(=O)Nc3ccsc3C(=O)N[C@@H](CCCNC(=N)N)C(=O)O)c3ncccc3c2)c1` [Compound 12a, (2S)-5-Guanidino-2-[[3-[[6-[3-[[(3-methylimidazol-4-yl)-methylamino]-methyl]-phenyl]-8-quinolyl]-sulfonylamino]-thiophene-2-carbonyl]-amino]-pentanoic Acid, Formic Acid], the Kd on NRP1 b1 domain is 1.44 ± 0.13 µM.

For the molecule `CNCc1ccc(-c2cc(S(=O)(=O)Nc3ccsc3C(=O)N[C@@H](CCCNC(=N)N)C(=O)O)c3ncccc3c2)cc1` [Compound 12b, (2S)-5-Guanidino-2-[[3-[[6-[4-(methylaminomethyl)-phenyl]-8-quinolyl]-sulfonylamino]-thiophene-2-carbonyl]-amino]-pentanoic Acid, Formic Acid], the Kd at NRP1 b1 domain stood at 2.27 ± 0.07 µM.

Take `Cn1cncc1CNCc1ccc(-c2cc(S(=O)(=O)Nc3ccsc3C(=O)N[C@@H](CCCNC(=N)N)C(=O)O)c3ncccc3c2)cc1` [Compound 12c, (2S)-5-Guanidino-2-[[3-[[6-[4-[[(3-methylimidazol-4-yl)-methylamino]-methyl]-phenyl]-8-quinolyl]-sulfonylamino]-thiophene-2-carbonyl]-amino]-pentanoic Acid, Formic Acid]: on NRP1 b1 domain, the Kd worked out at 0.8 ± 0.14 µM.

For the molecule `N=C(N)NCCC[C@H](NC(=O)c1sccc1NS(=O)(=O)c1cc(-c2cccc(CN)c2)cc2cccnc12)C(=O)O` [Compound 12d, (2S)-2-[[3-[[6-[3-(Aminomethyl)-phenyl]-8-quinolyl]-sulfonylamino]-thiophene-2-carbonyl]-amino]-5-guanidino-pentanoic Acid, Formic Acid], the Kd on NRP1 b1 domain was 0.65 ± 0.05 µM.

Regarding `N=C(N)NCCC[C@H](NC(=O)c1sccc1NS(=O)(=O)c1cc(-c2ccc(CN)cc2)cc2cccnc12)C(=O)O` [Compound 12e, (2S)-2-[[3-[[6-[4-(Aminomethyl)-phenyl]-8-quinolyl]-sulfonylamino]-thiophene-2-carbonyl]-amino]-5-guanidino-pentanoic Acid, Formic Acid], the Kd at NRP1 b1 domain is 0.92 ± 0.15 µM.

As for `N=C(N)NCCC[C@H](NC(=O)c1sccc1NS(=O)(=O)c1cc(-c2ccnc(N)c2)cc2cccnc12)C(=O)O` [Compound 12f, (2S)-2-[[3-[[6-(2-Amino-4-pyridyl)-8-quinolyl]-sulfonylamino]-thiophene-2-carbonyl]-amino]-5-guanidino-pentanoic Acid, Formic Acid], the Kd at NRP1 b1 domain amounted to 1.49 ± 0.2 µM.

For the molecule `N=C(N)NCCC[C@H](NC(=O)c1sccc1NS(=O)(=O)c1cc(NCc2csc(N)n2)cc2cccnc12)C(=O)O` [Compound 12i, (2S)-2-[[3-[[6-[(2-Aminothiazol-4-yl)-methylamino]-8-quinolyl]-sulfonylamino]-thiophene-2-carbonyl]-amino]-5-guanidino-pentanoic Acid, Formic Acid], at NRP1 b1 domain, the Kd was found to be 1.04 ± 0.12 µM.

With `CNc1nc(CNc2cc(S(=O)(=O)Nc3ccsc3C(=O)N[C@@H](CCCNC(=N)N)C(=O)O)c3ncccc3c2)cs1` [Compound 12j, (2S)-5-Guanidino-2-[[3-[[6-[[2-(methylamino)-thiazol-4-yl]-methylamino]-8-quinolyl]-sulfonylamino]-thiophene-2-carbonyl]-amino]-pentanoic Acid], the IC50 on NRP1-a1,b1 (setting [3]) stood at 0.45 ± 0.01 µM. The IC50 at NRP1-a1,b1 (plate-based assay, Figure 2D, read-out: IC50, competitive inhibition of bt-VEGFA binding to NRP1) is less than 0.5 µM. In addition, the “Competition analysis bt-VEGFA, cell-free NRP1-a1,b1 Hill coefficient” value on NRP1-a1,b1 (value in parentheses) is reported as 1.0. Further, in series [1], the AUC(0-inf) worked out at 643 ng·h/mL, the AUC(0-t) is 640 ng·h/mL, the Cmax turned out to be 2500 ng/mL and the Tmax turned out to be 4.8 min. In series [1], the Vd was 0.628 L/kg and the half-life is 36 min. The same molecule came in with a clearance in series [1] (iv, 2 mg/kg) of 51.9 mL/min/kg. Besides, the AUC in series [1] (read-out: AUCall) worked out at 640 ng·h/mL. Also, the Kd at NRP1 b1 domain was 0.53 ± 0.14 µM.

As for `N=C(N)NCCC[C@H](NC(=O)c1sccc1NS(=O)(=O)c1cc(NCc2cccc(N3CCOCC3)n2)cc2cccnc12)C(=O)O` [Compound 12k, (2S)-5-Guanidino-2-[[3-[[6-[(6-morpholino-2-pyridyl)-methylamino]-8-quinolyl]-sulfonylamino]-thiophene-2-carbonyl]-amino]-pentanoic Acid], the Kd at NRP1 b1 domain was found to be 1.14 ± 0.12 µM.

Turning to `N=C(N)NCCC[C@H](NC(=O)c1sccc1NS(=O)(=O)c1cc(NCc2ccc(N)nc2)cc2cccnc12)C(=O)O` [Compound 12l, (2S)-2-[[3-[[6-[(6-Amino-3-pyridyl)-methylamino]-8-quinolyl]-sulfonylamino]-thiophene-2-carbonyl]-amino]-5-guanidino-pentanoic Acid, Formic Acid], the Kd on NRP1 b1 domain amounted to 1.23 ± 0.36 µM.

On to `CN(C)c1ncc(CNc2cc(S(=O)(=O)Nc3ccsc3C(=O)N[C@@H](CCCNC(=N)N)C(=O)O)c3ncccc3c2)cn1` [Compound 12m, (2S)-2-[[3-[[6-[[2-(Dimethylamino)-pyrimidin-5-yl]-methylamino]-8-quinolyl]-sulfonylamino]-thiophene-2-carbonyl]-amino]-5-guanidino-pentanoic Acid], for which the Kd at NRP1 b1 domain was 7.71 ± 0.31 µM.

Take `CN(C)c1ccc(CNc2cc(S(=O)(=O)Nc3ccsc3C(=O)N[C@@H](CCCNC(=N)N)C(=O)O)c3ncccc3c2)cn1` [Compound 12n, (2S)-2-[[3-[[6-[[6-(Dimethylamino)-3-pyridyl]-methylamino]-8-quinolyl]-sulfonylamino]-thiophene-2-carbonyl]-amino]-5-guanidino-pentanoic Acid]: the Kd at NRP1 b1 domain is 0.82 ± 0.1 µM.

With `N=C(N)NCCC[C@H](NC(=O)c1sccc1NS(=O)(=O)c1cccc2cccnc12)C(=O)O` [Compound 12o, (S)-5-Guanidino-2-{[3-(quinoline-8-sulfonylamino)-thiophene-2-carbonyl]-amino}-pentanoic Acid], the IC50 at NRP1-a1,b1 (setting [3]) stood at 0.9 ± 0.16 µM. In addition, the Kd at NRP1 b1 domain came to 1.41 ± 0.16 µM.

In the case of `N=C(N)NCCC[C@H](NC(=O)c1sccc1NS(=O)(=O)c1cc(-c2csc(N)n2)cc2cccnc12)C(=O)O` [Compound 12q, (S)-2-({3-[6-(2-Amino-thiazol-4-yl)-quinoline-8-sulfonylamino]-thiophene-2-carbonyl}-amino)-5-guanidino-pentanoic Acid], on NRP1 b1 domain, the Kd is 0.51 µM and 2.54 µM.

With `CCOCC` [diethyl ether], the “pK BHX (hydrogen bond acceptor strength)” value in series [2] is 1.01.

For the molecule `c1c[nH]cn1` [imidazole], in series [2], the “pK BHX (hydrogen bond acceptor strength)” value is on record as 2.72.

Take `c1ccc2ncccc2c1` [quinoline]: in series [2], the “pK BHX (hydrogen bond acceptor strength)” value is 1.89.

As for `C1CCOC1` [tetrahydrofuran], the “pK BHX (hydrogen bond acceptor strength)” value in series [2] is recorded as 1.28.

The values above are taken from paper PMC12624434 (ACS Pharmacology & Translational Science, 2025).
